Earlier results, collected in US9750251B2, “Liquid herbicidal preparations” (BAYER INTELLECTUAL PROPERTY GMBH, priority 2008, dated 2017).
In brackets after ≈: the same amount, converted by molar mass.

Conditions: at 25° C.

CCOC1Oc2ccc(OS(C)(=O)=O)cc2C1(C)C (racemic) [ethofumesate]
water solubility: 50 µg/mL (≈ 175 µM)
